Entries after “also recorded” stand apart in the source; their conditions may differ.
System: NCOA7
Format: cell-based, human
Conditions: ECs, FIGS. 3A-3B

SMILES: N#CCNC(=O)c1ccc(-c2ccnc(Nc3ccc(N4CCOCC4)cc3)n2)cc1 [momelotinib, Momelotinib]
- NCOA7 expression (IL-1β-mediated upregulation of NCOA7): abrogated the IL-1β-mediated upregulation of NCOA7; also recorded: attenuates NCOA7 expression

— patent US11773391B2, “Therapeutic and diagnostic target for SARS-CoV-2 and COVID-19” (priority 2020, dated 2023)
